In this test the test system is primary cultures of rat cortical neurons. Description: Cell protective activity against glutamate induced-neurotoxicity (MTT assay). It counts as cell-based, Sprague-Dawley rats. As to the method:
The extracts of Dioscorea opposita were suspended in DMSO (Sigma Co., Ltd) and diluted to the extent that the final concentration reaches to <0.1%. Each suspension was filtered with 0.22 μm membrane filter (Millipore Co., Ltd.) to sterilize. After the concentrations of each fractions were adjusted to 100 μg/ml and 10 μg/ml, The test samples with various final concentration of various fractions were named as follows: 100 μg/ml of hexane layer (H100), 10 μg/ml of hexane layer (H10), 100 μg/ml of water layer (W100), 10 μg/ml of water layer (W10), 100 μg/ml of ethyl-acetate layer (E100), 10 μg/ml of ethylacetate layer (E10), 100 μg/ml of chloroform layer (C100), 10 μg/ml of chloroform layer (C10), 100 μg/ml of butanol layer (B100), 10 μg/ml of butanol layer (B10) respectively. The cultured cell was pretreated with each test sample 1 hour before the glutamate treatment and the protective activity of D. opposita against the death of cerebral cortex cells was assessed.
The tested fractions were dissolved in DMSO and diluted to the extent that the final concentration reaches to <0.1%. The matured cerebral cortex cells for 15 days were pretreated with the test fractions for 1 hour and then exposed to 100 μM glutamate. After further incubation for 24 hour, the neuronal survival was quantified using by MTT assay, which yields blue formazan products in living cells.
For orientation: Tetrazolium assays rely on reduction of a dye to a coloured formazan, in cell work by metabolically active cells.

Consider one molecule from patent US7824718B2, “Extract of Dioscorea opposita thunb showing neuronal cell-protecting activity for treating memory loss” (Tong Yang Moolsan Co., Ltd., priority 2005, dated 2010).

As to `C[C@]12N[C@H](Cc3ccccc31)c1ccccc12` [MK801], the “Protection activity (%)” value (MK801 positive control in Table 1, concentration not given) turned out to be 79%. Further, the Relative protection (positive control at 10 μM, P<0.0001) came out at 80.6±1.6%.
